Values joined by “and” are separate entries in the source; they are usually repeats but may differ in a detail not shown here. Equal entries are not always repeated. Where two headings read alike, the source gives them in different places.
Experiments:
[1] = system: Shionogi mouse mammary carcinoma cells; assay: cells; type: cell-based
Rat Androgen Receptor = target: T1, Rat Androgen Receptor (Rattus norvegicus, UniProt P15207); assay: Androgen receptor binding assay (HAP, [3H]R1881), rat prostate cytosol
T1 construct: ventral prostates collected from 24 h-gonadectomized rats were homogenized in buffer A; from tissue; host or cells: rat ventral prostate cytosol (24 h-gonadectomized rats)
T1 sequence (P15207 1-902): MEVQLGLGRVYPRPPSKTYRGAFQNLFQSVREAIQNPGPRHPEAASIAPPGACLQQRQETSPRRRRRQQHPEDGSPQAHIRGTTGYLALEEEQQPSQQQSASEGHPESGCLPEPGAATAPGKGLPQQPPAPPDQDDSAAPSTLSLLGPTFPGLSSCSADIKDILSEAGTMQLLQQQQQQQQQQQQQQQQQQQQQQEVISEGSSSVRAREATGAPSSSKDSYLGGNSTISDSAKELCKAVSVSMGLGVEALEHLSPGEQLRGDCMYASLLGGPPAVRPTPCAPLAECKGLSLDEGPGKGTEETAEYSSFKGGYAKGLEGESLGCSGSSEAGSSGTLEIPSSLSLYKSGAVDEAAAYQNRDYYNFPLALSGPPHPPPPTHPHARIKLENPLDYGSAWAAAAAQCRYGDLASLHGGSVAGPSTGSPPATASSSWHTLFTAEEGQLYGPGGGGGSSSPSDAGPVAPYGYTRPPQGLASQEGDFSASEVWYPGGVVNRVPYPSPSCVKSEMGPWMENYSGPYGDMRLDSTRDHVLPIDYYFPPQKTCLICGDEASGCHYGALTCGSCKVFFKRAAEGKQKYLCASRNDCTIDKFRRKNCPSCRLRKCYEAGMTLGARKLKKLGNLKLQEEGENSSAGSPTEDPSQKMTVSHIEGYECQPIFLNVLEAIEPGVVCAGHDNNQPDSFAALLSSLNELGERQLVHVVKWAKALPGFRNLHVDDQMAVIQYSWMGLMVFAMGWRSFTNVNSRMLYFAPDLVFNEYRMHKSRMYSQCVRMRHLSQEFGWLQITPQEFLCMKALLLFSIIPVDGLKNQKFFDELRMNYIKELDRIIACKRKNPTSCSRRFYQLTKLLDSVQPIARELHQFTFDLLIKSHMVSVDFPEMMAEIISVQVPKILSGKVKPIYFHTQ
Protocol: On the morning of the binding assay, ventral prostates collected from 24 h-gonadectomized rats were homogenized in buffer A (1 g of tissue in 5 mL) and the homogenate was centrifuged as described above.
Androgen binding is measured using the hydroxylapatite (HAP) assay. In brief, the radioactive steroid [^3H]R1881 solubilized in ethanol is diluted with buffer B (10 mM Tris-HCl, 1.5 mM EDTA disodium salt, 10 mM α-monothioglycerol, pH 7.4). Aliquots of the cell or prostate cytosol preparation (0.1 ml) are then incubated with 5 nM [^3H]R1881 (0.1 ml, ˜100 000 cpm) in the presence or absence of the indicated concentrations of unlabeled compounds (0.1 ml, prepared in buffer B containing 30% ethanol) for 16-18 h at 0-4° C. Triamcinolone acetonide (TAC; 100 nM) is added to mask progesterone receptors. Unbound steroids are separated by incubation for 40 min at 0-4° C. with 0.3 ml HAP prepared in buffer P (50 mM Tris-HCl, 10 mM KH2PO4, pH 7.4). After incubation with HAP and 10 min of centrifugation at 1000×g, the pellet is washed 3 times with 1 ml of buffer P. Thereafter, the radioactivity is extracted from the pellet by incubation at room temperature for 60 min with 1 ml of ethanol. After centrifugation, the supernatant is decanted into a scintillation vial and the pellet is extracted again with ethanol. After the addition of scintillation liquid, the radioactivity is measured in a liquid scintillation counter.

Human Androgen Receptor = target: T2, Human Androgen Receptor (Homo sapiens, UniProt P10275); type: binding
T2 construct: expressed in transfected cells; host or cells: HEK-293 cells stably transfected with the pCMVneo-hAR plasmid (G-418 selection); cytosol used
T2 sequence (P10275 1-920): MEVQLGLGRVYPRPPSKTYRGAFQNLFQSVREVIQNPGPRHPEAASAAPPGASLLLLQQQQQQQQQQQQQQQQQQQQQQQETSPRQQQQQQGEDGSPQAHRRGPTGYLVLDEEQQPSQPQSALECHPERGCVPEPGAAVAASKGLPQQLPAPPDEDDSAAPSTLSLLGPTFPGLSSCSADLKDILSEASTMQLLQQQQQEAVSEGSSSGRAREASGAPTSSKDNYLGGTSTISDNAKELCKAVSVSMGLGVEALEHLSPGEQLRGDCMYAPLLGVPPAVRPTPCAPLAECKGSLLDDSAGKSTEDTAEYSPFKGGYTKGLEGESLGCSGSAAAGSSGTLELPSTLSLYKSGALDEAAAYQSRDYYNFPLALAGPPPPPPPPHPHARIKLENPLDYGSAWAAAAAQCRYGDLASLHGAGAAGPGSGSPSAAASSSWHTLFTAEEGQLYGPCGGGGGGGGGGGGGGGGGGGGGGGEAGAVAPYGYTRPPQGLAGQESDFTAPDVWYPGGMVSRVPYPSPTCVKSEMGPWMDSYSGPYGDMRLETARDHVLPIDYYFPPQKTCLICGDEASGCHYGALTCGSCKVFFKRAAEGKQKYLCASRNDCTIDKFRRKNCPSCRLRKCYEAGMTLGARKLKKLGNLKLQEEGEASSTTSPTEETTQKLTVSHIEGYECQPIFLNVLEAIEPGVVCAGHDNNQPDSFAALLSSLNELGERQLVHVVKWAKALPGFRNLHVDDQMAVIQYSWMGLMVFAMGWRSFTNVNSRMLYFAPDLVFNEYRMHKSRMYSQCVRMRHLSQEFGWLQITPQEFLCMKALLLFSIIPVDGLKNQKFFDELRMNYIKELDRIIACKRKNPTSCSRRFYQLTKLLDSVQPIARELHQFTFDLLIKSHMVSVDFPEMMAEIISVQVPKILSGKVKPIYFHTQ

Immature Rat CX + DHT = assay: animal or person; type: in vivo; details: for change in vivo at 0.1 mg / change in vivo at 0.5 mg: Rattus norvegicus, 168 h
[2] = system: CX+ 4-DIONE in Mature Rat; assay: Systemic antiandrogenic activity in mature male rats; type: in vivo; details: for inhibition of prostate weight (4-dione stimulated): 5 mg/rat
androgen receptor = assay: Antiandrogen / SARM / androgen profile observed on structural change; details: structure-activity observation in estratriene derivatives
Description: Preferred positions on the steroid to this change in activities are 3, 4, 11β, 16 and 17α. […] Moreover, when we changed the 4-fluoro by a 4-chloro on EM-6583, we obtained a pure androgen (EM-5697). Similarly, when we increased the size of the chain at 17α-position on (1,4-phenylene as a spacer group), EM-8419 became a SARM. Again, when we changed the 4-fluoro by a 4-chloro on EM-8419, we obtained a pure androgen (EM-5313).
We also believed that a larger size increase could reverse the observed tendency (androgen to SARM or antiandrogen). Thus, it is not obvious to make good predictions of the biological activity of this compound family but some trends are observable.

in vivo = details: male, Sprague-Dawley, rat, po, 0.5 mg
Immature Rat CX = details: sc
Intact Rat = assay: In vivo activity in intact rat (organ and muscle weight); details: rat, in vivo
[3] = po, read-out: In Vivo Antagonist % Change vs DHT (CX = −100%) SV
[4] = po, read-out: In Vivo Antagonist % Change vs DHT (CX = −100%) VP

Compound	change in vivo at 0.1 mg (Immature Rat CX + DHT; [3])	change in vivo at 0.5 mg (Immature Rat CX + DHT; [3])	change in vivo at 0.1 mg (Immature Rat CX + DHT; [4])	change in vivo at 0.5 mg (Immature Rat CX + DHT; [4])	inhibition of DHT-stimulated seminal vesicle weight (Immature Rat CX + DHT; rat, in vivo)	inhibition of DHT-stimulated ventral prostate weight (Immature Rat CX + DHT; rat, in vivo)	% change vs 4-DIONE Cont (CX Cont = −100% inh) Seminal Vesicles ([2]; 1 mg/rat/per os/ID)	% change vs 4-DIONE Cont (CX Cont = −100% inh) Ventral Prostate ([2]; 1 mg/rat/per os/ID)	In Vivo Agonist % Change vs CX (DHT = +100%) SV (Immature Rat CX)	In Vivo Agonist % Change vs CX (DHT = +100%) VP (Immature Rat CX)	inhibition of prostate weight (4-dione stimulated) [2]	% change vs 4-DIONE Cont (CX Cont = −100% inh) Seminal Vesicles ([2]; 5 mg/rat/per os/ID)	% change vs 4-DIONE Cont (CX Cont = −100% inh) Ventral Prostate ([2]; 5 mg/rat/per os/ID)	AUC (in vivo; in vivo)	further results
C[C@]12CCC3c4ccc(C#N)c(F)c4CCC3C1CC[C@@]2(O)Cc1cc[n+]([O-])cc1 (stereo partly shown) [EM-5854]	-86 ± 2%	-85%	-46 ± 2%	-76%	85%	76%	−109 ± 5%	−67 ± 2%							Shionogi cells Antiandrogenic activity Ki OH-Flu/Ki compound [1]: 5.5 and 5.5 ± 1.2; Ki ([1]; read-out: Shionogi cells Antiandrogenic activity Ki): 2.5 ± 0.4 nM; Rat Androgen Receptor Binding RBA (%) R1881 = 100% (Rat Androgen Receptor): 0.4 ± 0.1%; Human Androgen Receptor Binding RBA (%) R1881 = 100% (Human Androgen Receptor): 0.63 ± 0.08%; potency on rat androgen-sensitive parameters relative to currently available antiandrogens (Immature Rat CX + DHT; rat, in vivo): approximately 5 times; % change vs 4-DIONE Cont (CX Cont = −100% inh) Seminal Vesicles ([2]; 0.2 mg/rat/per os/ID): −69 ± 7%; % change vs 4-DIONE Cont (CX Cont = −100% inh) Ventral Prostate ([2]; 0.2 mg/rat/per os/ID): −34 ± 7%; reversal of the stimulatory effect of 4-dione on ventral prostate weight ([2]; daily oral dose of 1 mg/rat): 67%; 4-dione-induced stimulation of seminal vesicle weight ([2]; orchidectomized mature rats with 4-dione implants): completely reversed; activity profile (antiandrogen, SARM or androgen) (androgen receptor): pure antiandrogen; AUC (in vivo; plasma): 2930 ± 233 ng·h/mL
CC(C)C(=O)Nc1ccc([N+](=O)[O-])c(C(F)(F)F)c1 [Flutamide, reference compound]	-62 ± 4%	-83%	-26 ± 2%	-48%	83%	48%	−102 ± 8%	−47 ± 7%	(0; 0.2 mg, sc) %	(1; 0.2 mg, sc) %	70%	−106 ± 6%	−70 ± 3%	39 ± 4 ng·h/mL	In Vivo Anti-A Rat CX + DHT % change vs DHT (CX CONT = −100%) Bulbo (Immature Rat CX + DHT; rat, in vivo, po): [−68 ± 2] %; In Vivo Anti-A Rat CX + DHT % change vs DHT (CX CONT = −100%) SV (Immature Rat CX + DHT; rat, in vivo, po): [−83 ± 1] %; In Vivo Anti-A Rat CX + DHT % change vs DHT (CX CONT = −100%) VP (Immature Rat CX + DHT; rat, in vivo, po): [−48 ± 1] %; In Vivo Intact Rat % change vs Intact CONT (Intact CONT = +100%; CX CONT = 0%) Bulbo (Intact Rat): +42 ± 6%; In Vivo Intact Rat % change vs Intact CONT (Intact CONT = +100%; CX CONT = 0%) SZ (Intact Rat): +33 ± 4%; In Vivo Intact Rat % change vs Intact CONT (Intact CONT = +100%; CX CONT = 0%) VP (Intact Rat): +75 ± 4%
CC(O)(CS(=O)(=O)c1ccc(F)cc1)C(=O)Nc1ccc(C#N)c(C(F)(F)F)c1 (stereo not shown) [bicalutamide]		-86%		-51%			−82 ± 9%	−44 ± 7%	(0; 0.2 mg, sc) %	(0; 0.2 mg, sc) %	64%	−90 ± 6%	−64 ± 4%	8500 ± 386 ng·h/mL	

Source: patent US9284345B2 (priority 2007, dated 2016)
